In patent publication US10093623B2, “Cyclic amides as MetAP-2 inhibitors” (MERCK PATENT GmbH, priority 2012, dated 2018) one finds IC50 data, which are given here for 32 molecules.

A value given as a limit tells only on which side of the number the result lay.

The target in the assay is MetAP-2 (Homo sapiens, UniProt P50579). Description: MetAP-2 activity measurement (coupled enzymatic reactions, Met-Arg-Ser substrate, dianisidine detection at 450 nm). It is filed as biochemical. As to conditions: Inhibition of MetAP-2; read-out: IC50 enzyme. An outline of the steps: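 Rate read from the linear part of the 450 nm absorbance trace. Dianisidine oxidation by peroxidase reports H2O2 made when amino acid oxidase acts on methionine cleaved from MAS tripeptide, one mol dye per mol Met; extinction coefficient gives molar activity.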
Chain of MetAP-2 (P50579 whole entry, species assumed): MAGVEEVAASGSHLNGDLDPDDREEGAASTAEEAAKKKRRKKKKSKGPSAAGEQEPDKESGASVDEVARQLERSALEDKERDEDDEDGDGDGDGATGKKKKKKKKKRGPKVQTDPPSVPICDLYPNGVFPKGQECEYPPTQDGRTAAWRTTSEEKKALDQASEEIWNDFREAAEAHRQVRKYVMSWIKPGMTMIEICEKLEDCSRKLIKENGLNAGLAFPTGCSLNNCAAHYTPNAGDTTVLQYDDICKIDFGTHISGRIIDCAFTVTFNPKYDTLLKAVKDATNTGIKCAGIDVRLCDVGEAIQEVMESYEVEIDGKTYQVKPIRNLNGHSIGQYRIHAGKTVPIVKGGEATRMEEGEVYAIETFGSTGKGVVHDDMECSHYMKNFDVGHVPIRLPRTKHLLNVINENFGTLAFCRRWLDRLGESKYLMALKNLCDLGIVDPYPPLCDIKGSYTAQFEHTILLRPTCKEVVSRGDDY

As for `CCOC(=O)c1cc2cc(N3CC[C@@](O)(C(=O)NCc4cc(F)cc(Cl)c4)C3=O)ccc2[nH]1` [B81, Ethyl 5-[(R)-3-(3-chloro-5-fluorobenzylcarbamoyl)-3-hydroxy-2-oxopyrrolidin-1-yl]-1H-indole-2-carboxylate], the IC50 (in general, the midpoint of a concentration-inhibition curve) is over 10000 nM.
To `COCCn1cc(N2CCC(O)(C(=O)NCc3cc(F)cc(Cl)c3)C2=O)cn1` (centres unmarked) [B82, N-(3-Chloro-5-fluorobenzyl)-3-hydroxy-1-[1-(2-methoxyethyl)-1H-pyrazol-4-yl]-2-oxo-pyrrolidine-3-carboxamide] belongs 10 to 1000 nM; to `O=C(NCc1cc(F)cc(Cl)c1)[C@@]1(O)CCN(c2cnc3[nH]c(C(F)(F)F)cc3c2)C1=O` [B83, N-(3-Chloro-5-fluorobenzyl)-(S)-3-hydroxy-2-oxo-1-(2-trifluoromethyl-1H-pyrrolo-[2,3-b]pyridin-5-yl)pyrrolidine-3-carboxamide], 10 to 1000 nM.
`O=C(O)c1cc2cc(N3CC[C@](O)(C(=O)NCc4cc(F)cc(Cl)c4)C3=O)ccc2[nH]1` [B84, 5-[(S)-3-(3-Chloro-5-fluorobenzylcarbamoyl)-3-hydroxy-2-oxopyrrolidin-1-yl]-1H-indole-2-carboxylic acid]: the IC50 fell in the range of 10 to 1000 nM.
To `O=C(O)c1cc2cc(N3CC[C@@](O)(C(=O)NCc4cc(F)cc(Cl)c4)C3=O)ccc2[nH]1` [B85, 5-[(R)-3-(3-Chloro-5-fluorobenzylcarbamoyl)-3-hydroxy-2-oxopyrrolidin-1-yl]-1H-indole-2-carboxylic acid] belongs over 10000 nM.
The figure for `N#CCn1cc(N2CCC(O)(C(=O)NCc3cc(F)cc(Cl)c3)C2=O)cn1` (centres unmarked) [B87, N-(3-Chloro-5-fluorobenzyl)-1-(1-cyanomethyl-1H-pyrazol-4-yl)-3-hydroxy-2-oxopyrrolidine-3-carboxamide] is 10 to 1000 nM.
For the molecule `CC(C)NC(=O)c1cc2cc(N3CC[C@@](O)(C(=O)NCc4cc(F)cc(Cl)c4)C3=O)ccc2[nH]1` [B89, N-Isopropyl-5-[(R)-3-(3-chloro-5-fluorobenzylcarbamoyl)-3-hydroxy-2-oxopyrrolidin-1-yl]-1H-indole-2-carboxamide], the IC50 was over 10000 nM.
To `CN(C)C(=O)c1cc2cc(N3CC[C@@](O)(C(=O)NCc4cc(F)cc(Cl)c4)C3=O)ccc2[nH]1` [B90, N,N-Dimethyl-5-[(R)-3-(3-chloro-5-fluorobenzylcarbamoyl)-3-hydroxy-2-oxopyrrolidin-1-yl]-1H-indole-2-carboxamide] belongs over 10000 nM; to `CC(=O)OC1(C(=O)NCc2cc(F)cc(Cl)c2)CCN(c2ccc3c(c2)CCC(=O)N3)C1=O` (centres unmarked) [B91, 3-(3-Chloro-5-fluorobenzyl-carbamoyl)-2-oxo-1-(2-oxo-1,2,3,4-tetrahydroquinolin-6-yl)-pyrrolidin-3-yl acetate], 1000 to 10000 nM; to `O=C(NCc1cc(F)cc(Cl)c1)[C@@]1(O)CCN(c2cnc3[nH]cnc3c2)C1=O` [B92, N-(3-Chloro-5-fluorobenzyl)-(S)-3-hydroxy-1-(3H-imidazo-[4,5-b]pyridin-6-yl)-2-oxo-pyrrolidine-3-carboxamide], 10 to 1000 nM.
The figure for `O=C(NCc1cc(F)cc(Cl)c1)[C@]1(O)CCN(c2cnc3[nH]cnc3c2)C1=O` [B93, N-(3-Chloro-5-fluorobenzyl)-(R)-3-hydroxy-1-(3H-imidazo-[4,5-b]pyridin-6-yl)-2-oxo-pyrrolidine-3-carboxamide] is 1000 to 10000 nM; for `CN(C)C(=O)c1cc2cc(N3CC[C@](O)(C(=O)NCc4cc(F)cc(Cl)c4)C3=O)ccc2[nH]1` [B95, N,N-Dimethyl-5-[(S)-3-(3-chloro-5-fluorobenzylcarbamoyl)-3-hydroxy-2-oxopyrrolidin-1-yl]-1H-indole-2-carboxamide] it is 10 to 1000 nM.
`CNC(=O)c1cc2cc(N3CC[C@](O)(C(=O)NCc4cc(F)cc(Cl)c4)C3=O)ccc2[nH]1` [B96, N-Methyl-5-[(S)-3-(3-chloro-5-fluorobenzylcarbamoyl)-3-hydroxy-2-oxopyrrolidin-1-yl]-1H-indole-2-carboxamide]: the IC50 lay within 10 to 1000 nM.
The figure for `CC(C)NC(=O)c1cc2cc(N3CC[C@](O)(C(=O)NCc4cc(F)cc(Cl)c4)C3=O)ccc2[nH]1` [B97, N-Isopropyl-5-[(S)-3-(3-chloro-5-fluorobenzylcarbamoyl)-3-hydroxy-2-oxopyrrolidin-1-yl]-1H-indole-2-carboxamide] is 10 to 1000 nM; for `COCCn1cc(N2CC[C@](O)(C(=O)NCc3cc(F)cc(Cl)c3)C2=O)cn1` [B99, N-(3-Chloro-5-fluorobenzyl)-(S)-3-hydroxy-1-[1-(2-methoxy-ethyl)-1H-pyrazol-4-yl]-2-oxo-pyrrolidine-3-carboxamide] it is 10 to 1000 nM.
For the molecule `COCCn1cc(N2CC[C@@](O)(C(=O)NCc3cc(F)cc(Cl)c3)C2=O)cn1` [B100, N-(3-Chloro-5-fluorobenzyl)-(R)-3-hydroxy-1-[1-(2-methoxy-ethyl)-1H-pyrazol-4-yl]-2-oxo-pyrrolidine-3-carboxamide], the IC50 is over 10000 nM.
Turning to `NS(=O)(=O)c1ccc(N2CC[C@](O)(C(=O)NCc3cc(F)cc(Cl)c3)C2=O)cc1` [B101, N-(3-Chloro-5-fluorobenzyl)-(S)-3-hydroxy-2-oxo-1-(4-sulfamoyl-phenyl)pyrrolidine-3-carboxamide], the 50% inhibitory concentration (IC50) lay in the range of 10 to 1000 nM.
Consider `CNC(=O)c1cc2cc(N3CC[C@@](O)(C(=O)NCc4cc(F)cc(Cl)c4)C3=O)ccc2[nH]1` [B102, N-Methyl-5-[(R)-3-(3-chloro-5-fluorobenzylcarbamoyl)-3-hydroxy-2-oxopyrrolidin-1-yl]-1H-indole-2-carboxamide], for which the IC50 is over 10000 nM.
As for `NC(=O)[C@@]1(O)CCN(c2ccc3c(c2)CCC(=O)N3)C1=O` [B103, (S)-3-Hydroxy-2-oxo-1-(2-oxo-1,2,3,4-tetrahydroquinolin-6-yl)-pyrrolidine-3-carboxamide], the IC50 was over 10000 nM.
In the case of `O=C(NCc1cc(F)cc(Cl)c1)C1(O)CCN(c2cnc3[nH]cc(C(F)(F)F)c3c2)C1=O` (centres unmarked) [B104, N-(3-Chloro-5-fluorobenzyl)-3-hydroxy-2-oxo-1-(3-trifluoro-methyl-1H-pyrrolo[2,3-b]pyridin-5-yl)pyrrolidine-3-carboxamide], the IC50 lay in the range of 10 to 1000 nM.
The figure for `COC(=O)CCc1cc(N2CCC(O)(C(=O)NCc3cc(F)cc(Cl)c3)C2=O)ccc1NC(=O)OC(C)(C)C` (centres unmarked) [B105, Methyl 3-{2-tert-butoxy-carbonylamino-5-[3-(3-chloro-5-fluorobenzylcarbamoyl)-3-hydroxy-2-oxopyrrolidin-1-yl]-phenyl}propionate] is 10 to 1000 nM.
For `CC(C)(C)OC(=O)Nc1ccc(N2CCC(O)(C(=O)NCc3cc(F)cc(Cl)c3)C2=O)cc1CCC(=O)O` (centres unmarked) [B106, 3-{2-tert-Butoxycarbonylamino-5-[3-(3-chloro-5-fluorobenzyl-carbamoyl)-3-hydroxy-2-oxo-pyrrolidin-1-yl]phenyl}propionic acid], the IC50 is 1000 to 10000 nM.
To `NS(=O)(=O)c1cccc(N2CCC(O)(C(=O)NCc3cc(F)cc(Cl)c3)C2=O)c1` (centres unmarked) [B107, N-(3-Chloro-5-fluorobenzyl)-3-hydroxy-2-oxo-1-(3-sulfamoyl-phenyl)pyrrolidine-3-carboxamide] belongs 10 to 1000 nM; to `NCCOCCOCCNC(=O)c1cc2cc(N3CC[C@](O)(C(=O)NCc4cc(F)cc(Cl)c4)C3=O)ccc2[nH]1` [B108, N-({2-[2-(2-Aminoethoxy)-ethoxy]ethyl})-5-[(S)-3-(3-chloro-5-fluorobenzylcarbamoyl)-3-hydroxy-2-oxopyrrolidin-1-yl]-1H-indole-2-carboxamide], 10 to 1000 nM.
To `O=C1CCc2cc(N3CCC(O)(C(=O)NCc4cc(F)cc(Cl)c4)C3=O)c(F)cc2N1` (centres unmarked) [B109, N-(3-Chloro-5-fluorobenzyl)-1-(7-fluoro-2-oxo-1,2,3,4-tetrahydroquinolin-6-yl)-3-hydroxy-2-oxopyrrolidine-3-carboxamide] belongs 10 to 1000 nM; to `O=C(NCCc1cc(F)cc(F)c1)[C@@]1(O)CCN(c2ccc3[nH]ccc3c2)C1=O` [B110, N-[2-(3,5-Difluorophenyl)ethyl]-(S)-3-hydroxy-1-(1H-indol-5-yl)-2-oxopyrrolidine-3-carboxamide], 10 to 1000 nM.
To `O=C(NCCc1cc(F)cc(F)c1)[C@]1(O)CCN(c2ccc3[nH]ccc3c2)C1=O` [B111, N-[2-(3,5-Difluorophenyl)ethyl]-(R)-3-hydroxy-1-(1H-indol-5-yl)-2-oxopyrrolidine-3-carboxamide] belongs 1000 to 10000 nM.
For the molecule `O=C(c1cc2cc(N3CC[C@](O)(C(=O)NCc4cc(F)cc(Cl)c4)C3=O)ccc2[nH]1)N1CCOCC1` [B112, N-(3-Chloro-5-fluorobenzyl)-(S)-3-hydroxy-1-[2-(morpholine-4-carbonyl)-1H-indol-5-yl]-2-oxo-pyrrolidine-3-carboxamide], the IC50 was 10 to 1000 nM.
The figure for `NCCOCCNC(=O)c1cc2cc(N3CC[C@](O)(C(=O)NCc4cc(F)cc(Cl)c4)C3=O)ccc2[nH]1` [B113, N-[2-(2-Aminoethoxy)ethyl]-5-[(S)-3-(3-chloro-5-fluorobenzylcarbamoyl)-3-hydroxy-2-oxopyrrolidin-1-yl]-1H-indole-2-carboxamide] is 10 to 1000 nM.
Regarding `O=C(c1cc2cc(N3CC[C@](O)(C(=O)NCc4cc(F)cc(Cl)c4)C3=O)ccc2[nH]1)N1CCC1` [B114, N-(3-Chloro-5-fluorobenzyl)-(S)-1-[2-(azetidine-1-carbonyl)-1H-indol-5-yl]-3-hydroxy-2-oxo-pyrrolidine-3-carboxamide], the IC50 lay within 10 to 1000 nM.
In the case of `NS(=O)(=O)c1ccc(N2CCC(O)(C(=O)NCc3cc(F)cc(Cl)c3)C2=O)cc1` (centres unmarked) [B115, N-(3-Chloro-5-fluorobenzyl)-3-hydroxy-2-oxo-1-(4-sulfamoyl-phenyl)pyrrolidine-3-carboxamide], the IC50 was 10 to 1000 nM.
The figure for `N#CCn1cc(N2CC[C@](O)(C(=O)NCc3cc(F)cc(Cl)c3)C2=O)cn1` [B116, N-(3-Chloro-5-fluorobenzyl)-(S)-1-(1-cyanomethyl-1H-pyrazol-4-yl)-3-hydroxy-2-oxopyrrolidine-3-carboxamide] is 10 to 1000 nM.
